# Assay results from ChEMBL document CHEMBL1201862, “PubChem BioAssay data set” (2004).
# Calls of active or inactive are those of the source. Cut-off read from the data, not from the text of the source, for most assays here: actives have a measured EC50 and inactives only a lower limit.
# Tests used:
# H9c2 = test: cells; format: functional, cell-based; conditions: Rattus norvegicus, H9c2, Myocardium;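 note: confirmatory concentration-response retest of ultra-high-throughput screening hits for modulation of myocardial damage; cell death induced by hydrogen peroxide oxidative stress; compound pretreatment for 60 min then peroxide exposure for 2 h; potency is for protecting the cells against peroxide damage rather than for killing them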
# [1] = NIH3T3 cell viability loss – ATP luminescence, mouse fibroblasts, counter-screen, dose response (AID 2010); format: functional, cell-based;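 note: cells exposed to compound for about 90 hours before reading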
# INS1 = test: INS-1E survival protection against cytokine death – cell-based, luminescence, retest, dose response (AID 449756); format: functional; conditions: Rattus norvegicus;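 note: cell death triggered by IL-1 beta plus TNF-alpha plus IFN-gamma mixture; protective hits raise ATP signal compared with cytokine alone wells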
# [2] = Trypanosoma cruzi growth suppression in host cells – NIH3T3 host cells, beta-gal luminescence, confirmation (AID 2044); format: functional, cell-based;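 note: intracellular parasites grown in NIH/3T3 mouse fibroblasts as host cells; luminescent beta-galactosidase reporter signal from transgenic T. cruzi replicating inside host cells; inhibitors lower the luminescence signal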
# Paired box protein Pax-8 = Paired box protein Pax-8 (Homo sapiens, UniProt Q06710); test: PAX8 transcriptional activity inhibition in RMG-I – RMG-I cells, luciferase, cherry-pick, dose response (AID 687027); format: functional, cell-based;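 note: luciferase reporter driven by Pax8 target thyroperoxidase promoter measured by SteadyGlo luminescence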
# [3] = molecular target: T1, Ubiquitin-conjugating enzyme E2 N (Homo sapiens, UniProt P61088); format: functional;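 note: Dose-response confirmation in a TR-FRET assay detecting UBC13-driven polyubiquitin chain formation, inhibition measured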
# T1 sequence (P61088 whole entry): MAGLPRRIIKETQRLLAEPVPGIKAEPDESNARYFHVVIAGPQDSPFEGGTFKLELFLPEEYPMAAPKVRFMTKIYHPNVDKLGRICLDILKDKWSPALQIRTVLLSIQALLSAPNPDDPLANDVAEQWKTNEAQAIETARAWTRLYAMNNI
# [4] = NIH-3T3 fibroblast cytotoxicity, dose response, cytotoxicity control, cell-based, fluorescence, Alamar Blue, secondary assay (AID 2327); format: functional;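 note: NIH-3T3 mouse fibroblasts cultured with fluconazole at 8 µg/mL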
# [5] = fluconazole-exposed Candida albicans growth modulators – fluorescence, retest, confirmation (AID 2467); format: functional, cell-based
# [6] = Luminescence Cell-Based Dose Confirmation HTS to Identify Activators of 5'UTR Stem-Loop Driven Alpha-Synuclein mRNA Translation in H4 Neuroglioblastoma Cells. [Related pubchem assays: 1829 (Project Summary), 1814 (Primary HTS)]; format: functional
# H4 = test: Luminescence Cell-Based Dose Response HTS to Identify Activators of 5'UTR Stem-Loop Driven Prion Protein mRNA Translation in H4 Neuroglioblastoma Cells. [Related pubchem assays: 1829 (Project Summary), 1814 (Primary HTS)]; format: functional; conditions: Homo sapiens
# [7] = Luminescence Cell-Based Dose Response HTS to Identify Activators of Luciferase Translation or Activity in H4 […] Cells. [Related pubchem assays: 1829 (Project Summary), 1814 (Primary HTS)]; format: functional
# [8] = molecular target: T2, Corticotropin-releasing factor receptor 2/Corticotropin-releasing factor-binding protein (Homo sapiens, UniProt P24387+Q13324); test: activators of CRF receptor 2 with binding protein – uHTS hits, confirmation (AID 602473); format: functional; conditions: read-out: EC50_Mean
# T2 sequence (Q13324 whole entry): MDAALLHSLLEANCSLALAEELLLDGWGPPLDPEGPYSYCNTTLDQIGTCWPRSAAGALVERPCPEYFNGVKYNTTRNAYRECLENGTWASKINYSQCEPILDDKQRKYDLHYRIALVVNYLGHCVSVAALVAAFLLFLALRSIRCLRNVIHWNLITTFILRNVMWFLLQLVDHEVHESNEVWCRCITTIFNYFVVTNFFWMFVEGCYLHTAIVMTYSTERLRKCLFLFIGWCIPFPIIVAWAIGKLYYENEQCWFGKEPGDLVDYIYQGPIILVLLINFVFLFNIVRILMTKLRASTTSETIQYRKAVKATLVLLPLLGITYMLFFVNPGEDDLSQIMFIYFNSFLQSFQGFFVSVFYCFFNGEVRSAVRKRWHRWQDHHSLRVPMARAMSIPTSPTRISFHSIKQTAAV
# T2 sequence (P24387 whole entry): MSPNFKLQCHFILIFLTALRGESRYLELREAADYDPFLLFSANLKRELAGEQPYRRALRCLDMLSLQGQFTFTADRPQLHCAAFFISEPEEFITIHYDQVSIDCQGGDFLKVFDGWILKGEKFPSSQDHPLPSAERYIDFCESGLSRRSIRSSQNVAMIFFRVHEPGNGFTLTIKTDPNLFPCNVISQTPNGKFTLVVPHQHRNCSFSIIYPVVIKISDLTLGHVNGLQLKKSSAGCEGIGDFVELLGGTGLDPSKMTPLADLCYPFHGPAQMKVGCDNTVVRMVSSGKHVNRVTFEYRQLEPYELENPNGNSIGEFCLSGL
# [9] = molecular target: T2, Corticotropin-releasing factor receptor 2/Corticotropin-releasing factor-binding protein; test: Dose Response confirmation of uHTS hits for small molecule antagonists of the CRF-binding protein and CRF-R2 receptor complex.; format: functional; conditions: read-out: IC50_Mean
# [10] = molecular target: T3, Heat shock factor protein 1 (Mus musculus, UniProt P38532); test: decrease of HSF1-responsive luciferase luminescence – cell-based, NIH3T3, dose retest, confirmation (AID 2382); format: functional;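 note: NIH3T3 fibroblasts with HSF1-driven luciferase reporter stressed by proteasome inhibitor MG132; luminescence from HSF1-driven luciferase expression after 8 hours of MG132 stress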
# T3 sequence (P38532 whole entry): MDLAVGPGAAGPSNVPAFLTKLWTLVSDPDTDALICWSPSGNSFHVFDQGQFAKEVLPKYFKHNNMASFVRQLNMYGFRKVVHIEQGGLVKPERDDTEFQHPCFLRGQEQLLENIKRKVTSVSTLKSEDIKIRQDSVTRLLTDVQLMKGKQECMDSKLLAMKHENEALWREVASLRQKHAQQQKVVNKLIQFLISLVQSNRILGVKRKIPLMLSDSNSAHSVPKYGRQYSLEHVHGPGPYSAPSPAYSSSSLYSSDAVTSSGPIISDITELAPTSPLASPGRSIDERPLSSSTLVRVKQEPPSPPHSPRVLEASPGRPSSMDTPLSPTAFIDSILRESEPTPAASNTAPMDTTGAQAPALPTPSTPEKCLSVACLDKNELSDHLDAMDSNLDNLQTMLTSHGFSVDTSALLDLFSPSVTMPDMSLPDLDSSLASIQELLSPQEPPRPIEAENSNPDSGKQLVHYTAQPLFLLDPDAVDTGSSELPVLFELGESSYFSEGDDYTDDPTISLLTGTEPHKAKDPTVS
# Streptococcus = test: GAS UMAA2166 growth inhibition – luminescence, BacTiterGlo, counter-screen for streptokinase expression inhibitor project, dose response (AID 1915); format: functional, organism-based;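 note: potency for reduction of bacterial viability or growth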
# [11] = test system: Streptococcus sp. 'group A'; test: Streptococcus pyogenes SK(-)GAS viability under kanamycin – luminescence, BacTiterGlo, confirmation, counter-screen for streptokinase expression inhibitor project, dose response (AID 1900); format: functional, organism-based
# Streptokinase A = molecular target: T4, Streptokinase A (Streptococcus pyogenes serotype M1, UniProt P10520); test: viability-normalized secreted streptokinase activity reduction – plasminogen activation absorbance, OD405, dose response (AID 1914); format: functional, Streptococcus pyogenes M1 GAS;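 note: secreted streptokinase activity via plasminogen activation per viability signal from cell pellet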
# T4 sequence (P10520 whole entry): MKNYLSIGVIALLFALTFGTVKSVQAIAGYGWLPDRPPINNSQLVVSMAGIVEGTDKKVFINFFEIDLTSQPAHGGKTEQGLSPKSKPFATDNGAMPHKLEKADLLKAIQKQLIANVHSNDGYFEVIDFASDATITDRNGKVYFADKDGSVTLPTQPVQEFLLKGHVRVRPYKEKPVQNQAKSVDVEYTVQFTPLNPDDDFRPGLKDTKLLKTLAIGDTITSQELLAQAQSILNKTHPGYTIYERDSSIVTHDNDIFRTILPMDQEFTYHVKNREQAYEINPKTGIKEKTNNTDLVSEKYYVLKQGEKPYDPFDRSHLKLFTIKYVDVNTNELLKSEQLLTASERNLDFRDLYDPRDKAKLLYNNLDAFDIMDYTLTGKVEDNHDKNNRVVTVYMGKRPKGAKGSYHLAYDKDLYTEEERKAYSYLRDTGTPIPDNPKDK
# Paired box protein Pax-8, sequence (Q06710 whole entry): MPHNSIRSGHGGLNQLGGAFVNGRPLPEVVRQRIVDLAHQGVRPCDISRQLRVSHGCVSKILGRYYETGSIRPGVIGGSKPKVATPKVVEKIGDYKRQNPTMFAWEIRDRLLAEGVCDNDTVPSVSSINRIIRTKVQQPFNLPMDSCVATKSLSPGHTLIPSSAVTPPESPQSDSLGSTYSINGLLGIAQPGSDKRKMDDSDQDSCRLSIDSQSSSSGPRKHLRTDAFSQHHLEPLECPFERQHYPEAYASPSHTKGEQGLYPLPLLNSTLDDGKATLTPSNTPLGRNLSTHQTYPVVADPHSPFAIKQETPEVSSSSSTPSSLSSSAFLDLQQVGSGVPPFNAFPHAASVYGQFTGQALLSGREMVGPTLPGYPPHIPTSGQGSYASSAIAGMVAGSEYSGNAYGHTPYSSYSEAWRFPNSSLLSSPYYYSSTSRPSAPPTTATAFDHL
smiles,measurement,setting,value
O=C(CSc1nnc(-c2cccnc2)o1)c1cc2ccccc2oc1=O,IC50,H9c2,> 79 µM (inactive)
COc1ccc(-[n+]2c(-c3ccc(Br)cc3)cn3c2CCCCC3)cc1,EC50,[1],> 60 µM (not active)
same,AC50,INS1,1.15 µM (active)
same,EC50,[2],552 nM (active)
Cc1ccc(C)c(N2CCN(C(=O)CCCOc3cc(=O)n(C)c4ccccc34)CC2)c1,AC50,INS1,2.78 µM (active)
C[C@@H]1CCCCO[C@@H](CN(C)Cc2ccc(C(F)(F)F)cc2)[C@H](C)CN([C@@H](C)CO)C(=O)c2cc(NS(=O)(=O)c3ccccc3)ccc2O1,AC50,Paired box protein Pax-8,4.66 µM (active)
O=C1N[C@H]2CC=C[C@H]2Nc2ccccc21,IC50,H9c2,44.8 µM (inactive)
COc1ccc(C(CCN2CCCC(C)C2)c2c(OC)cc(OC)c3c(-c4ccccc4)cc(=O)oc23)cc1 (stereo not given),IC50,[3],> 20 µM (inactive)
O=C(NC(O)C(=O)c1cccs1)c1cccnc1 (stereo not given),IC50,H9c2,> 79 µM (inactive)
CC(C)=CCc1cc2c(=O)c3c(O)c4c(cc3oc2c(O)c1O)OC(C)C4(C)C (stereo not given) [GERONTOXANTHONE G],EC50,[1],6.31 µM (active)
same,AC50,INS1,5.18 µM (active)
same,EC50,[4],> 160 µM (inactive)
same,EC50,[5],> 38 µM (not active)
same,EC50,[2],2640 nM (active)
CNCC(O)c1cc(F)c(OCc2ccccc2)c(OCc2ccccc2)c1F (stereo not given),IC50,[3],> 20 µM (inactive)
OC1(C(F)(F)F)CC(O)(C(F)(F)F)n2nc(-c3ccccc3)cc2N1 (stereo not given),EC50,[6],> 120 µM (not active)
same,EC50,H4,11 µM (active)
same,EC50,[7],> 120 µM (not active)
COc1ccc(/N=C/C=C2\C=C(c3ccccc3)OC(C)(C)O2)cc1,EC50,[6],> 120 µM (not active)
same,EC50,H4,> 120 µM (not active)
same,EC50,[7],10.2 µM (active)
Cc1cc(S(=O)(=O)Nc2ccc(C(=O)NCC(C)(C)N3CCOCC3)cc2)ccc1F,EC50,[8],> 53 µM (inactive)
same,IC50,[9],> 47.1 µM (inactive)
same,EC50,[10],> 195 µM (not active)
Cc1ccc(S(=O)(=O)N(CC(=O)N=Nc2c(O)[nH]c3ccccc23)c2ccc(C)c(C)c2)cc1,EC50,[8],> 53 µM (inactive)
same,IC50,[9],3.25 µM (active)
Cc1nc(SCC(=O)c2cccs2)c2oc3ccccc3c2n1,EC50,[6],21.5 µM (active)
same,EC50,H4,68 µM (active)
same,EC50,Streptococcus,20.1 µM (active)
same,EC50,[11],21.2 µM (active)
same,EC50,Streptokinase A,> 150 µM (not active)
same,EC50,[7],16 µM (active)
COc1ccc2sc(N(CCCN(C)C)C(=O)c3ccc(S(=O)(=O)N(C)Cc4ccccc4)cc3)nc2c1,EC50,[1],> 60 µM (not active)
same,EC50,[2],185 nM (active)
same,IC50,[3],> 20 µM (inactive)
O=C1N=C(N/N=C/c2ccc(F)cc2)SC1c1ccccc1 (stereo not given),EC50,[8],> 53 µM (inactive)
same,IC50,[9],> 47.1 µM (inactive)
CCc1nnc(NC(=O)c2ccc(-c3ccccc3Cl)o2)s1,EC50,[6],> 120 µM (not active)
same,EC50,H4,18.9 µM (active)
same,EC50,[7],6.73 µM (active)
